# According to patent US9540323B2 (BRISTOL-MYERS SQUIBB COMPANY, priority 2012, dated 2017):
# Where two headings read alike, the source gives them in different places.
# Assays:
# [1] = target: cloned human P2Y1 receptors (Homo sapiens (Human), UniProt P47900); test: Binding Assay B - Scintillation Proximity Assay (SPA) for P2Y1 binding, [33P] 2MeS-ADP; settings: read-out: P2Y1 Ki (nM) using binding assay B
# Protocol: Binding Assay B—Scintillation Proximity Assay (SPA) for P2Y1 Binding
# A SPA membrane binding assay was used to identify inhibitors of [^33P] […] Reactions were allowed to proceed to completion at room temperature for 1 hour followed by centrifugation of the plate for 5 min. About 40 μL of the aqueous solution was aspirated. Plates were sealed and the [^33P]
# [2] = tested on: human platelet rich plasma (PRP); test: ADP induced platelet aggregation assay; settings: Homo sapiens, Platelet, 5 min, read-out: PA IC50 (μM) @ 10 μM ADP, human PRP, 10 μM ADP, AUC at 5 minute
# [3] = SPA, 0.3 nM [33P] 2MeS-ADP, Cheng-Prusoff
# Sequence of cloned human P2Y1 receptors (P47900 whole entry): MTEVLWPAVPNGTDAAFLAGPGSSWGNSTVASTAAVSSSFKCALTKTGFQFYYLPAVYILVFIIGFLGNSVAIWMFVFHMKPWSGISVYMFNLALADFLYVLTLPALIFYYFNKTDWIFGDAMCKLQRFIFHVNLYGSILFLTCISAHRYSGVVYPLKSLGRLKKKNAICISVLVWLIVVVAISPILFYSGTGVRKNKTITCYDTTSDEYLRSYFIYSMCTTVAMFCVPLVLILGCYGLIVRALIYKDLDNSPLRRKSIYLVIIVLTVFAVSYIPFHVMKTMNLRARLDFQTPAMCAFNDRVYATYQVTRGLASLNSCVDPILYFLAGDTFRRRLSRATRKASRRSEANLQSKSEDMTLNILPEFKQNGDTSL
SMILES,"Ki [1, 3] [nM]",IC50 [2] [µM],Ki [1] [nM]
"CC(C)(C)c1ccc(-c2c(F)cc(O)c3c2C(C)(C)CN3c2ccccc2NC(=O)Nc2csc(C(F)(F)F)n2)cc1 [Example 243, 1-(2-(4-(4-(tert-Butyl)phenyl)-5-fluoro-7-hydroxy-3,3-dimethylindolin-1-yl)phenyl)-3-(2-(trifluoromethyl)thiazol-4-yl)urea]",20.3,0.1,
"CC1(C)CN(c2ccccc2NC(=O)Nc2ccc(OC(F)(F)F)cc2)c2c(O)ccc(-c3nc4ccc(Cl)cc4o3)c21 [Example 91, 1-(2-(4-(6-Chlorobenzo[d]oxazol-2-yl)-7-hydroxy-3,3-dimethylindolin-1-yl)phenyl)-3-(4-(trifluoromethoxy)phenyl)urea]",65.1,0.33,
"CCC1(CC)CN(c2ccccc2NC(=O)Nc2ccc(C3CCN(CC(C)C)CC3)cc2)c2c(O)ccc(Cl)c21 [Example 50, 1-(2-(4-Chloro-3,3-diethyl-7-hydroxyindolin-1-yl)phenyl)-3-(4-(1-isobutylpiperidin-4-yl)phenyl)urea]",6.6,0.86,
"CC1(C)CN(c2ccccc2NC(=O)Nc2csc(Cl)n2)c2c(O)cc(F)c(-c3ccc(C(F)(F)F)cc3)c21 [Example 239, 1-(2-Chlorothiazol-4-yl)-3-(2-(5-fluoro-7-hydroxy-3,3-dimethyl-4-(4-(trifluoromethyl)phenyl)indolin-1-yl)phenyl)urea]",11.3,0.05,
"CC1(C)CN(c2ccccc2NC(=O)Nc2ccc(OC(F)(F)F)cc2)c2c(O)cc(F)c(-c3ccno3)c21 [Example 261, 1-(2-(5-Fluoro-7-hydroxy-4-(isoxazol-5-yl)-3,3-dimethylindolin-1-yl)phenyl)-3-(4-(trifluoromethoxy)phenyl)urea]",5.5,1.99,
"CC1(C)CN(c2ccccc2NC(=O)Nc2nc3ccc(F)cc3s2)c2c(O)cc(F)c(-c3cc(C(F)(F)F)no3)c21 [Example 264, 1-(2-(5-Fluoro-7-hydroxy-3,3-dimethyl-4-(3-(trifluoromethyl)isoxazol-5-yl)indolin-1-yl)phenyl)-3-(6-fluorobenzo[d]thiazol-2-yl)urea]",,0.62,18.2
"CC1(C)CN(c2ccccc2NC(=O)Nc2nc3ccc(Cl)nc3s2)c2c(O)ccc(-c3ccc(F)cc3)c21 [Example 209, 1-(5-Chlorothiazolo[5,4-b]pyridin-2-yl)-3-(2-(4-(4-fluorophenyl)-7-hydroxy-3,3-dimethylindolin-1-yl)phenyl)urea]",13,0.23,
"CC1(C)CN(c2ccccc2NC(=O)Nc2ccc(OC(F)(F)F)cc2)c2c(O)ccc(-c3ccc(F)cc3)c21 [Example 193, 1-(2-(4-(4-Fluorophenyl)-7-hydroxy-3,3-dimethylindolin-1-yl)phenyl)-3-(4-(trifluoromethoxy)phenyl)urea]",6.9,0.12,
"CC(C)(C)CN1CCCC1c1ccc(NC(=O)Nc2ccccc2N2CC(C)(C)c3c(-c4nc5ccc(Cl)cc5o4)ccc(O)c32)cc1 (centres unmarked) [Example 109, 1-(2-(4-(6-Chlorobenzo[d]oxazol-2-yl)-7-hydroxy-3,3-dimethylindolin-1-yl)phenyl)-3-(4-(1-neopentylpyrrolidin-2-yl)phenyl)urea]",22,0.13,
"CC1(C)CN(c2ccccc2NC(=O)Nc2ccc(C(F)(F)F)cc2)c2c(O)ccc(C(F)(F)F)c21 [Example 17, 1-(2-(7-Hydroxy-3,3-dimethyl-4-(trifluoromethyl)indolin-1-yl)phenyl)-3-(4-(trifluoro-methyl)phenyl)urea]",16.4,0.27,
"CCC1(CC)CN(c2ccccc2NC(=O)Nc2csc(Cl)n2)c2c(O)ccc(Cl)c21 [Example 53, 1-(2-(4-Chloro-3,3-diethyl-7-hydroxyindolin-1-yl)phenyl)-3-(2-chlorothiazol-4-yl)urea]",5,0.28,
"COC(=O)c1ccc(O)c2c1C(C)(C)CN2c1ccccc1NC(=O)Nc1ccc(OC(F)(F)F)cc1 [Example 80, Methyl 7-hydroxy-3,3-dimethyl-1-(2-(3-(4-(trifluoromethoxy)phenyl)ureido)phenyl)indoline-4-carboxylate]",9,0.84,
"CC1(C)CN(c2ccccc2NC(=O)Nc2ccc(OC(F)(F)F)cc2)c2c(O)c(F)cc(Br)c21 [Example 69, 1-(2-(4-Bromo-6-fluoro-7-hydroxy-3,3-dimethylindolin-1-yl)phenyl)-3-(4-(trifluoromethoxy)phenyl)urea]",18.1,0.83,
"CC1(C)CN(c2ccccc2NC(=O)Nc2nc3ccc(Cl)cc3s2)c2c(O)cc(F)c(Br)c21 [Example 70, 1-(2-(4-Bromo-5-fluoro-7-hydroxy-3,3-dimethylindolin-1-yl)phenyl)-3-(6-chlorobenzo[d]thiazol-2-yl)urea]",31.3,0.78,
"Cn1c(-c2ccc(O)c3c2C(C)(C)CN3c2ccccc2NC(=O)Nc2ccc(OC(F)(F)F)cc2)nc2ccccc21 [Example 88, 1-(2-(7-Hydroxy-3,3-dimethyl-4-(1-methyl-1H-benzo[d]imidazol-2-yl)indolin-1-yl)phenyl)-3-(4-(trifluoromethoxy)phenyl)urea]",39.7,4.15,
"CCOC(=O)C1(C)CN(c2ccccc2NC(=O)Nc2nc3ccc(F)cc3s2)c2c(O)ccc(Cl)c21 (centres unmarked) [Example 76, Ethyl 4-chloro-1-(2-(3-(6-fluorobenzo[d]thiazol-2-yl)ureido)phenyl)-7-hydroxy-3-methylindoline-3-carboxylate]",11.5,0.4,
"CC1(C)CN(c2ccccc2NC(=O)Nc2ccc(OC(F)(F)F)cc2)c2c(O)ccc(-c3cncc(F)c3)c21 [Example 117, 1-(2-(4-(5-Fluoropyridin-3-yl)-7-hydroxy-3,3-dimethylindolin-1-yl)phenyl)-3-(4-(trifluoromethoxy)phenyl) urea]",36,0.51,
"CC1(C)CN(c2ccccc2NC(=O)Nc2nc3ccc(Cl)nc3s2)c2c(O)cc(F)c(-c3nc4cc(F)ccc4s3)c21 [Example 153, 1-(5-Chlorothiazolo[5,4-b]pyridin-2-yl)-3-(2-(5-fluoro-4-(5-fluorobenzo[d]thiazol-2-yl)-7-hydroxy-3,3-dimethylindolin-1-yl)phenyl)urea]",15.4,0.23,
"CC1(C)CN(c2ccccc2NC(=O)Nc2ccc(OC(F)(F)F)cc2)c2c(O)ccc(-c3ccncc3Cl)c21 [Example 114, 1-(2-(4-(3-Chloropyridin-4-yl)-7-hydroxy-3,3-dimethylindolin-1-yl)phenyl)-3-(4-(trifluoromethoxy)phenyl) urea]",26.5,0.53,
"CCN1CCc2nc(NC(=O)Nc3ccccc3N3CC(C)(C)c4c(C(F)(F)F)ccc(O)c43)sc2C1 [Example 20, 1-(5-Ethyl-4,5,6,7-tetrahydrothiazolo[5,4-c]pyridin-2-yl)-3-(2-(7-hydroxy-3,3-dimethyl-4-(trifluoromethyl)indolin-1-yl)phenyl)urea]",18.6,0.95,
"CC1(C)CN(c2ccccc2NC(=O)Nc2ccc(OC(F)(F)F)cc2)c2c(O)ccc(-c3ccc(Cl)s3)c21 [Example 121, 1-(2-(4-(5-Chlorothiophen-2-yl)-7-hydroxy-3,3-dimethylindolin-1-yl)phenyl)-3-(4-(trifluoromethoxy)phenyl)urea]",113,0.2,
"CC1(C)CN(c2ccccc2NC(=O)Nc2ccc(OC(F)(F)F)cc2)c2c(O)ccc(-c3nc4cc(F)ccc4s3)c21 [Example 170, 1-(2-(4-(5-Fluorobenzo[d]thiazol-2-yl)-7-hydroxy-3,3-dimethylindolin-1-yl)phenyl)-3-(4-(trifluoromethoxy)phenyl)urea]",14.1,0.25,
"CC1(C)CN(c2ccccc2NC(=O)Nc2csc(Cl)n2)c2c(O)cc(F)c(-c3ccc(Cl)cc3)c21 [Example 215, 1-(2-(4-(4-Chlorophenyl)-5-fluoro-7-hydroxy-3,3-dimethylindolin-1-yl)phenyl)-3-(2-chlorothiazol-4-yl)urea]",15,0.14,
"CCSc1nsc(NC(=O)Nc2ccccc2N2CC(CC)(CC)c3c(F)ccc(O)c32)n1 [Example 33, 1-(2-(3,3-Diethyl-4-fluoro-7-hydroxyindolin-1-yl)phenyl)-3-(3-(ethylthio)-1,2,4-thiadiazol-5-yl)urea]",7.6,0.55,
"CC(C)(C)CN1CCC(NC(=O)Nc2ccccc2N2CC(C)(C)c3c(-c4ccc(C(F)(F)F)cc4)c(F)cc(O)c32)CC1 [Example 246, 1-(2-(5-Fluoro-7-hydroxy-3,3-dimethyl-4-(4-(trifluoromethyl)phenyl)indolin-1-yl)phenyl)-3-(1-neopentylpiperidin-4-yl)urea]",14.2,0.25,
"CC1(C)CN(c2ccccc2NC(=O)Nc2ccc(OC(F)(F)F)cc2)c2c(O)cc(F)c(-c3nc4ccc(F)cc4s3)c21 [Example 144, 1-(2-(5-Fluoro-4-(6-fluorobenzo[d]thiazol-2-yl)-7-hydroxy-3,3-dimethylindolin-1-yl)phenyl)-3-(4-(trifluoromethoxy)phenyl)urea]",10,0.5,
"Cc1nc(NC(=O)Nc2ccccc2N2CC(C)(C)c3c(C(F)(F)F)ccc(O)c32)cs1 [Example 15, 1-(2-(7-Hydroxy-3,3-dimethyl-4-(trifluoromethyl)indolin-1-yl)phenyl)-3-(2-methylthiazol-4-yl)urea]",7.3,0.95,
"CCC1(CC)CN(c2ccccc2NC(=O)Nc2ccc(OC(F)(F)F)cc2)c2c(O)ccc(Cl)c21 [Example 51, 1-(2-(4-Chloro-3,3-diethyl-7-hydroxyindolin-1-yl)phenyl)-3-(4-(trifluoromethoxy)phenyl)urea]",14.1,0.41,
